How the values were obtained:
[1] = target: T1, Nicotinic acetylcholine receptor alpha8 subunit (Periplaneta americana, UniProt H6TY12); assay: Displacement of [3H]epibatidine from nAChR in Periplaneta americana (American cockroach) nerve cords membranes incubated at 24 degC for 2 hr by liquid scintillation counting method
T1 sequence (H6TY12 whole entry): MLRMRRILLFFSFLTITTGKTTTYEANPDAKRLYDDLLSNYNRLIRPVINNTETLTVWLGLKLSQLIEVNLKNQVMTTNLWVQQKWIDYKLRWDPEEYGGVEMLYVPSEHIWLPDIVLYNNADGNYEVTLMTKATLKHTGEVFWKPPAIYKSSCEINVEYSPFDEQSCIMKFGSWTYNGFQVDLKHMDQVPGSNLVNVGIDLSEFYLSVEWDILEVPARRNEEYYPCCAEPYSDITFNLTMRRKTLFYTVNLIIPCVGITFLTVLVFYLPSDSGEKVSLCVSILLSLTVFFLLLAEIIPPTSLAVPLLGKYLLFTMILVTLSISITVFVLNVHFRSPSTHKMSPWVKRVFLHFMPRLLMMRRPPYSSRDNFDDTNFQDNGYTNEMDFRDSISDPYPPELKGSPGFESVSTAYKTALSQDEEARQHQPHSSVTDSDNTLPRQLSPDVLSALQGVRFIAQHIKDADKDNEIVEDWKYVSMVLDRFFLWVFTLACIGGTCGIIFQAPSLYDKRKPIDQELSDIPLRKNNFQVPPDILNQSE

[2] = target: T2, Nicotinic acetylcholine receptor alpha8 subunit (Periplaneta americana) (UniProt H6TY12); assay: Displacement of [3H]epibatidine from nAChR in Periplaneta americana (American cockroach) nerve cords membranes at 10 uM incubated at 24 degC for 2 hr by liquid scintillation counting method
T2 sequence (whole entry): T1 sequence (H6TY12 whole entry)

Row | Structure (SMILES) | IC50 [1] [µM] | inhibition [2] [%]
1 | CN(C)c1ccc(/C=C/C=C2\CCN=C2c2cccnc2)cc1 | 2.07 | –
2 | C(=C1/CCN=C1c1cccnc1)/c1ccccc1 | > 10 | 41.3
3 | Clc1ccc(/C=C2\CCN=C2c2cccnc2)cc1 | > 10 | 21.5
4 | Oc1ccc(/C=C2\CCN=C2c2cccnc2)cc1 | 0.31 | –
5 | COc1ccc(/C=C2\CCN=C2c2cccnc2)cc1 | > 10 | 31.4
6 | COc1ccccc1/C=C1\CCN=C1c1cccnc1 | > 10 | 49.5
7 | COc1ccc(/C=C2\CCN=C2c2cccnc2)c(O)c1 | 3.89 | –
8 | COc1ccc(/C=C2\CCN=C2c2cccnc2)c(OC)c1 | 4.55 | –
9 | c1cncc(C2=NCCC2)c1 [MYOSMINE] | > 10 | 27.3
10 | N#Cc1ccc(/C=C2\CCN=C2c2cccnc2)cc1 | > 10 | 31.4
11 | Oc1cccc(/C=C2\CCN=C2c2cccnc2)c1 | > 10 | 32.1
12 | Oc1ccccc1/C=C1\CCN=C1c1cccnc1 | 6.9 | –
13 | C(=C1/CCCN=C1c1cccnc1)/c1ccccc1 [3-BENZYLIDENEANABASEINE] | 0.035 | –
14 | Clc1ccc(C2=NCCC/C2=C\c2ccccc2)cn1 | 0.0212 | –
15 | Fc1ccc(/C=C2\CCN=C2c2cccnc2)cc1 | > 10 | 22.3
16 | C(=C\c1ccccc1)/C=C1\CCN=C1c1cccnc1 [3-CINNAMYLIDENEMYOSMINE] | 3.52 | –
17 | Oc1ccc(/C=C2\CCN=C2c2cccnc2)c(O)c1 | 0.12 | –
18 | COc1cccc(/C=C2\CCN=C2c2cccnc2)c1 | > 10 | 23.6
19 | CN(C)c1ccc(/C=C2\CCN=C2c2cccnc2)cc1 | 5.49 | –

From ChEMBL document CHEMBL3045473, “Affinity of 3-benzylidene- and 3-cinnamylidenemyosmine analogues for Periplaneta americana nicotinic acetylcholine receptors” (J Pestic Sci, 2006)
